Data on 26 molecules can be found in patent US11028054B2, “1, 4, 6-trisubstituted-2-alkyl-1H-benzo[d]imidazole derivatives as dihydroorotate oxygenase inhibitors” (Merck Patent GmbH, priority 2017, dated 2021).

The target in this assay is DHODH (Homo sapiens (Human), UniProt Q02127). Kind of assay: Measurement of DHODH inhibitory enzyme activity (coupled DCIP reduction assay). In kind it is biochemical. From the text:
Measurement of DHODH Inhibitory Enzyme Activity (In Vitro Assays)
The DHODH activity assay is a coupled enzyme assay in which oxidation of DHO and subsequent reduction of ubiquinone are stoichiometrically equivalent to the reduction of DCIP ([…]). The reduction of DCIP is accompanied by a loss of absorbance at 610 nm.
Reagents used: L-Dihydroorotic acid, Sigma, D7128, 2,6-Dichloroindophenol sodium salt hydrate, sigma, D1878 Dimethyl sulfoxide (DMSO), spectroscopic grade purchased from Spectrochem, cat no. 0704209, B. no.—3183650 Decylubiquinone, Sigma, D7911.
Preparation of Solutions/Reagents:
Buffer Preparation: 50 mM tris HCl, 150 mM KCl, and pH 8.0, 0.8% triton.
L-Dihydroorotic acid stock solution of 20 mM in buffer.
2, 6-Dichloroindophenol Sodium salt hydrate stock solution of 20 mM in buffer.
Decylubiquinone stock solution of 20 mM in buffer.
5 μL of Dimethyl sulfoxide or a compound of formula (I) in DMSO solution was added to the wells of a 96 well plate. Compounds of formula (I) were measured at 10 μM.
Protein along with buffer was added, so that the total volume including the DMSO was 87 μL. Compound and protein were incubated for half an hour at room temperature after mixing. 5 μL of 20 mM solution of L-Dihydroorotic acid, 5 μL of 2 mM solution of Decylubiquinone and 3 μL of 2 mM solution of 2, 6-Dichloroindophenol sodium salt hydrate were added to the above solution (total assay volume 100 μL). The mixture was stirred for 2 min and absorbance was recorded at every 10 min at 610 nanometers.
Percent inhibition is calculated as follows 100*{(Abs610 for reaction containing compound)−(Abs610 for positive control) (Abs610 for no enzyme reaction)−(Abs610 for positive control) Reaction containing compound has compound, buffer, enzyme and substrates Positive control contains DMSO, buffer, enzyme and substrates No Enzyme reaction contains DMSO, buffer and substrates IC50 determination: A 2 mM DMSO stock solution of the selected 1, 4, 6-trisubstituted-2-alkyl-1H-benzo[d]imidazole derivatives of formula (I) of the present invention to be examined was prepared. Subsequent ⅓rd dilutions were made as follows:
5 μL of each stock of compound of formula (I) (solution indicated in column 4 of table) was used for each 100 μL assay. Therefore, 5 μL of the 2 mM stock provided 100 μL of 100 μM solution of compound of formula (I), when made up with buffer, protein and substrate. See also: Ulrich et al. (2001) Eur. J. Biochem. 268, 1861-1868.

Chain of DHODH (Q02127 whole entry): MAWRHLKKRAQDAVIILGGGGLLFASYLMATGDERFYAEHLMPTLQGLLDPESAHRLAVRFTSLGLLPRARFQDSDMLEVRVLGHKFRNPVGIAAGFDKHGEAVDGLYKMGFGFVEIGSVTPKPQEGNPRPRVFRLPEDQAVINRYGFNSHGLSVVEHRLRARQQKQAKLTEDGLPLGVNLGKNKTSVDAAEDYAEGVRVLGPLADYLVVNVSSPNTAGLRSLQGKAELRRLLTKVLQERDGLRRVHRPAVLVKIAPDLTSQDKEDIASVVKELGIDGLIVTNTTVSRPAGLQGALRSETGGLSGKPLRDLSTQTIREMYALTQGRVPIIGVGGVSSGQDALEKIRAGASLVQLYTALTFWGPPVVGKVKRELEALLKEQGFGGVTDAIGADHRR

Turning to `Cc1nc2c(C(=O)O)cc(-c3ccc(-c4cccc(O)c4)cc3)cc2[nH]1` [Example 16, 6-(3'-hydroxy-[1,1'-biphenyl]-4-yl)-2-methyl-1H-benzo[d]imidazole-4-carboxylic acid], the IC50 was 10 to 99 nM. `Cc1nc2c(C(=O)O)cc(-c3ccc(-c4ccccc4CN4CCOCC4)cc3)cc2[nH]1` [Example 45, 2-methyl-6-(2'-(morpholinomethyl)-[1,1'-biphenyl]-4-yl)-1H-benzo[d]imidazole-4-carboxylic acid.2,2,2-trifluoroacetic acid] showed an IC50 of 10 to 99 nM. Then `Cc1nc2c(C(=O)O)cc(-c3c(F)c(F)c(-c4cccc(CN5CCCCC5)c4)c(F)c3F)cc2[nH]1` [Example 56, 2-methyl-6-(2,3,5,6-tetrafluoro-3'-(piperidin-1-ylmethyl)-[1,1'-biphenyl]-4-yl)-1H-benzo[d]imidazole-4-carboxylic acid.2,2,2-trifluoroacetic acid], with 1 to 9.9 nM; and `Cc1nc2c(C(=O)O)cc(-c3c(F)c(F)c(-c4ccc(CN5CCCCC5)cc4)c(F)c3F)cc2[nH]1` [Example 61, 2-methyl-6-(2,3,5,6-tetrafluoro-4'-(piperidin-1-ylmethyl)-[1,1'-biphenyl]-4-yl)-1H-benzo[d]imidazole-4-carboxylic acid.2,2,2-trifluoroacetic acid], with 1 to 9.9 nM. With `Cc1nc2c(C(=O)O)cc(-c3ccc(-c4cccc(F)c4F)cc3)cc2[nH]1` [Example 4, 6-(2',3'-difluoro-[1,1'-biphenyl]-4-yl)-2-methyl-1H-benzo[d]imidazole-4-carboxylic acid] the figure was over 100 nM; with `Cc1nc2c(C(=O)O)cc(-c3ccc(-c4cccc(CO)c4)cc3)cc2[nH]1` [Example 90, 6-(3'-(hydroxymethyl)-[1,1'-biphenyl]-4-yl)-2-methyl-1H-benzo[d]imidazole-4-carboxylic acid], 10 to 99 nM; with `Cc1nc2c(C(=O)O)cc(-c3c(F)c(F)c(-c4cccc(CO)c4)c(F)c3F)cc2[nH]1` [Example 57, 2-methyl-6-(2,3,5,6-tetrafluoro-3'-(hydroxymethyl)-[1,1'-biphenyl]-4-yl)-1H-benzo[d]imidazole-4-carboxylic acid.2,2,2-trifluoroacetic acid], 1 to 9.9 nM. With `Cc1nc2c(C(=O)O)cc(-c3ccc(-n4c(C)ccc4C)cc3)cc2[nH]1` [Example 111, 6-(4-(2,5-dimethyl-1H-pyrrol-1-yl)phenyl)-2-methyl-1H-benzo[d]imidazole-4-carboxylic acid] the figure was 1 to 9.9 nM; with `Cc1nc2c(C(=O)O)cc(-c3ccc(-c4c(C)cccc4C)cc3)cc2[nH]1` [Example 145, 6-(2',6'-dimethyl-[1,1'-biphenyl]-4-yl)-2-methyl-1H-benzo[d]imidazole-4-carboxylic acid], 10 to 99 nM. In turn, `Cc1nc2c(C(=O)O)cc(-c3ccc(-c4ccccc4OCc4ccccc4)cc3)cc2[nH]1` [Example 17, 6-(2'-(benzyloxy)-[1,1'-biphenyl]-4-yl)-2-methyl-1H-benzo[d]imidazole-4-carboxylic acid] displayed an IC50 of 10 to 99 nM.

The molecule `Cc1nc2c(C(=O)O)cc(-c3ccc(-c4ccc(O)cc4)cc3)cc2[nH]1` [Example 20, 6-(4'-hydroxy-[1,1'-biphenyl]-4-yl)-2-methyl-1H-benzo[d]imidazole-4-carboxylic acid] returned an IC50 of 10 to 99 nM. Then `Cc1nc2c(C(=O)O)cc(-c3ccc(OCc4ccccc4)cc3)cc2[nH]1` [Example 69, 6-(4-(benzyloxy)phenyl)-2-methyl-1H-benzo[d]imidazole-4-carboxylic acid], with 1 to 9.9 nM. The molecule `Cc1nc2c(C(=O)O)cc(-c3c(F)c(F)c(-c4ccc(CN5CCCC5)cc4)c(F)c3F)cc2[nH]1` [Example 62, 2-methyl-6-(2,3,5,6-tetrafluoro-4'-(pyrrolidin-1-ylmethyl)-[1,1'-biphenyl]-4-yl)-1H-benzo[d]imidazole-4-carboxylic acid.2,2,2-trifluoroacetic acid] displayed an IC50 of 10 to 99 nM. As for `Cc1nc2c(C(=O)O)cc(-c3ccc(-c4ccccc4CN4CCCCC4)cc3)cc2[nH]1` [Example 42, 2-methyl-6-(2'-(piperidin-1-ylmethyl)-[1,1'-biphenyl]-4-yl)-1H-benzo[d]imidazole-4-carboxylic acid.2,2,2-trifluoroacetic acid], the IC50 is 10 to 99 nM. With `Cc1nc2c(C(=O)O)cc(-c3ccc(-c4c(F)cccc4CN4CCCC4)cc3)cc2[nH]1` [Example 150, 6-(2'-fluoro-6'-(pyrrolidin-1-ylmethyl)-[1,1'-biphenyl]-4-yl)-2-methyl-1H-benzo[d]imidazole-4-carboxylic acid.2,2,2-trifluoroacetic acid] the figure was 1 to 9.9 nM; with `Cc1nc2c(C(=O)O)cc(-c3ccc(-c4ccccc4CN4CC[C@@H](F)C4)cc3)cc2[nH]1` [Example 117, (R)-6-(2'-((3-fluoropyrrolidin-1-yl)methyl)-[1,1'-biphenyl]-4-yl)-2-methyl-1H-benzo[d]imidazole-4-carboxylic acid.2,2,2-trifluoroacetic acid], 1 to 9.9 nM. With `Cc1nc2c(C(=O)O)cc(-c3c(F)c(F)c(-c4cccc(CNC5CC5)c4)c(F)c3F)cc2[nH]1` [Example 60, 6-(3'-((cyclopropylamino)methyl)-2,3,5,6-tetrafluoro-[1,1'-biphenyl]-4-yl)-2-methyl-1H-benzo[d]imidazole-4-carboxylic acid.2,2,2-trifluoroacetic acid] the figure was 1 to 9.9 nM; with `Cc1nc2c(C(=O)O)cc(-c3ccc(-c4cccc(OCc5ccccc5)c4)cc3)cc2[nH]1` [Example 15, 6-(3'-(benzyloxy)-[1,1'-biphenyl]-4-yl)-2-methyl-1H-benzo[d]imidazole-4-carboxylic acid], 10 to 99 nM. Then `Cc1nc2c(C(=O)O)cc(-c3c(F)c(F)c(-c4cccc(CNC(C)C)c4)c(F)c3F)cc2[nH]1` [Example 59, 2-methyl-6-(2,3,5,6-tetrafluoro-3'-((isopropylamino)methyl)-[1,1'-biphenyl]-4-yl)-1H-benzo[d]imidazole-4-carboxylic acid.2,2,2-trifluoroacetic acid], with 10 to 99 nM; and `COc1cccc(-c2ccc(-c3cc(C(=O)O)c4nc(C)[nH]c4c3)cc2)c1F` [Example 21, 6-(2'-fluoro-3'-methoxy-[1,1'-biphenyl]-4-yl)-2-methyl-1H-benzo[d]imidazole-4-carboxylic acid], with 10 to 99 nM; and `Cc1nc2c(C(=O)O)cc(-c3c(F)c(F)c(-c4ccc(CN5CCCC(F)(F)C5)cc4)c(F)c3F)cc2[nH]1` [Example 64, 6-(4'-((3,3-difluoropiperidin-1-yl)methyl)-2,3,5,6-tetrafluoro-[1,1'-biphenyl]-4-yl)-2-methyl-1H-benzo[d]imidazole-4-carboxylic acid.2,2,2-trifluoroacetic acid], with 1 to 9.9 nM. Molecule `Cc1nc2c(C(=O)O)cc(-c3ccc(-c4cccc(CN5CCS(=O)(=O)CC5)c4)cc3)cc2[nH]1` [Example 36, 6-(3'-((1,1-dioxidothiomorpholino)methyl)-[1,1'-biphenyl]-4-yl)-2-methyl-1H-benzo[d]imidazole-4-carboxylic acid.2,2,2-trifluoroacetic acid] gave a concentration for half-maximal inhibition (IC50) of 10 to 99 nM. Then `Cc1nc2c(C(=O)O)cc(-c3c(F)c(F)c(-c4ccc(CN5CCS(=O)(=O)CC5)cc4)c(F)c3F)cc2[nH]1` [Example 65, 6-(4'-((1,1-dioxidothiomorpholino)methyl)-2,3,5,6-tetrafluoro-[1,1'-biphenyl]-4-yl)-2-methyl-1H-benzo[d]imidazole-4-carboxylic acid.2,2,2-trifluoroacetic acid], with 1 to 9.9 nM; and `Cc1nc2c(C(=O)O)cc(-c3c(F)c(F)c(-n4c(C)ccc4C)c(F)c3F)cc2[nH]1` [Example 67, 6-(4-(2,5-dimethyl-1H-pyrrol-1-yl)-2,3,5,6-tetrafluorophenyl)-2-methyl-1H-benzo[d]imidazole-4-carboxylic acid], with 1 to 9.9 nM. With `Cc1nc2c(C(=O)O)cc(-c3c(F)c(F)c(-c4ccccc4)c(F)c3F)cc2[nH]1` [Example 52, 2-methyl-6-(2,3,5,6-tetrafluoro-[1,1'-biphenyl]-4-yl)-1H-benzo[d]imidazole-4-carboxylic acid] the figure was 1 to 9.9 nM. Then `Cc1nc2c(C(=O)O)cc(-c3ccc(-c4ccccc4O)cc3)cc2[nH]1` [Example 23, 6-(2'-hydroxy-[1,1'-biphenyl]-4-yl)-2-methyl-1H-benzo[d]imidazole-4-carboxylic acid], with 10 to 99 nM.

Broadly, the IC50 is the concentration needed to halve the response being measured.
